Measurements as given in ChEMBL document CHEMBL1201862, “PubChem BioAssay data set” (2004).
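Compound exposure: 48 hours, 5 concentrations, 96-well plates. GI50 is the concentration that inhibits growth by half.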 Calls of active or inactive are those of the source. Cut-off read from the data, not from the text of the source: active = GI50 up to about 1.1 µM and inactive = higher.

Experiments:
Test in all cases: inhibition of tumour cell growth, NCI panel, 48 h
[1] = test system: 786-0
[2] = test system: A498
[3] = test system: A549
[4] = test system: ACHN
[5] = test system: BT-549
[6] = test system: CAKI-1
[7] = test system: CCRF-CEM
[8] = test system: COLO 205
[9] = test system: DU-145
[10] = test system: EKVX
[11] = test system: HCC 2998
[12] = test system: HCT-116
[13] = test system: HCT-15
[14] = test system: HL-60
[15] = test system: HOP-62
[16] = test system: HOP-92
[17] = test system: HT-29
[18] = test system: Hs-578T
[19] = test system: IGROV-1
[20] = test system: K562
[21] = test system: KM12
[22] = test system: LOX IMVI
[23] = test system: MCF7
[24] = test system: MDA-MB-231
[25] = test system: MDA-MB-435
[26] = test system: MDA-N
[27] = test system: MOLT-4
[28] = test system: Malme-3M
[29] = test system: NCI-H226
[30] = test system: NCI-H23
[31] = test system: NCI-H460
[32] = test system: NCI-H522
[33] = test system: NCI/ADR-RES
[34] = test system: OVCAR-3
[35] = test system: OVCAR-4
[36] = test system: OVCAR-5
[37] = test system: OVCAR-8
[38] = test system: PC-3
[39] = test system: RXF 393
[40] = test system: SF-268
[41] = test system: SF-295
[42] = test system: SK-MEL-28
[43] = test system: SK-MEL-2
[44] = test system: SK-MEL-5
[45] = test system: SN12C
[46] = test system: SNB-19
[47] = test system: SNB-75
[48] = test system: SR
[49] = test system: SW-620
[50] = test system: T47D
[51] = test system: TK-10
[52] = test system: U-251
[53] = test system: UACC-257
[54] = test system: UACC-62
[55] = test system: UO-31
[56] = test system: M14
[57] = test system: RPMI-8226
[58] = test system: SF-539
[59] = test system: SK-OV-3

## CC(=O)CCN1CC2CN=NC2(C#N)C1 (stereo unspecified)
[1]
  GI50: 36.6 µM (inactive)
[2]
  GI50: > 100 µM (inactive)
[3]
  GI50: > 100 µM (inactive)
[4]
  GI50: 24.8 µM (inactive)
[5]
  GI50: > 100 µM (inactive)
[6]
  GI50: 0.379 µM (active)
[7]
  GI50: 15.9 µM (inactive)
[8]
  GI50: 36.2 µM (inactive)
[9]
  GI50: > 100 µM (inactive)
[10]
  GI50: > 100 µM (inactive)
[11]
  GI50: > 100 µM (inactive)
[12]
  GI50: 34 µM (inactive)
[13]
  GI50: 69 µM
[14]
  GI50: 14.3 µM (inactive)
[15]
  GI50: > 100 µM (inactive)
[16]
  GI50: 22.3 µM (inactive)
[17]
  GI50: > 100 µM (inactive)
[18]
  GI50: 1.65 µM (inactive)
[19]
  GI50: > 100 µM (inactive)
[20]
  GI50: 6.7 µM (inactive)
[21]
  GI50: > 100 µM (inactive)
[22]
  GI50: 49 µM (inactive)
[23]
  GI50: 35.2 µM (inactive)
[24]
  GI50: > 100 µM (inactive)
[25]
  GI50: > 100 µM (inactive)
[26]
  GI50: 75.7 µM (inactive)
[27]
  GI50: 14.7 µM (inactive)
[28]
  GI50: 69.7 µM (inactive)
[29]
  GI50: 20.7 µM (inactive)
[30]
  GI50: > 100 µM (inactive)
[31]
  GI50: > 100 µM (inactive)
[32]
  GI50: 1.79 µM (inactive)
[33]
  GI50: > 100 µM (inactive)
[34]
  GI50: > 100 µM (inactive)
[35]
  GI50: > 100 µM (inactive)
[36]
  GI50: > 100 µM (inactive)
[37]
  GI50: > 100 µM (inactive)
[38]
  GI50: > 100 µM (inactive)
[39]
  GI50: 94.4 µM (inactive)
[40]
  GI50: > 100 µM (inactive)
[41]
  GI50: > 100 µM (inactive)
[42]
  GI50: > 100 µM (inactive)
[43]
  GI50: > 100 µM (inactive)
[44]
  GI50: > 100 µM (inactive)
[45]
  GI50: > 100 µM (inactive)
[46]
  GI50: > 100 µM (inactive)
[47]
  GI50: > 100 µM (inactive)
[48]
  GI50: > 100 µM (inactive)
[49]
  GI50: 17 µM (inactive)
[50]
  GI50: 35.6 µM (inactive)
[51]
  GI50: > 100 µM (inactive)
[52]
  GI50: > 100 µM (inactive)
[53]
  GI50: > 100 µM (inactive)
[54]
  GI50: > 100 µM (inactive)
[55]
  GI50: > 100 µM (inactive)

## Cc1nc2[nH]ccn2c(=O)c1CCCl
[1]
  GI50: 25.5 µM (inactive)
[2]
  GI50: 19 µM (inactive)
[3]
  GI50: 45.5 µM (inactive)
[4]
  GI50: 23.1 µM (inactive)
[5]
  GI50: 25.2 µM (inactive)
[6]
  GI50: > 10 µM (inactive)
[7]
  GI50: 18 µM (inactive)
[8]
  GI50: 38.7 µM (inactive)
[9]
  GI50: 23.6 µM (inactive)
[10]
  GI50: > 100 µM (inactive)
[11]
  GI50: 19.2 µM (inactive)
[12]
  GI50: 17 µM (inactive)
[13]
  GI50: 39.7 µM
[14]
  GI50: 25.4 µM (inactive)
[15]
  GI50: 23.6 µM (inactive)
[16]
  GI50: 21.4 µM (inactive)
[17]
  GI50: 33.7 µM (inactive)
[18]
  GI50: 37.6 µM (inactive)
[19]
  GI50: 26.2 µM (inactive)
[20]
  GI50: 22.9 µM (inactive)
[21]
  GI50: 20.4 µM (inactive)
[22]
  GI50: 16.6 µM (inactive)
[56]
  GI50: 31.8 µM (inactive)
[23]
  GI50: 68.1 µM (inactive)
[24]
  GI50: 38.7 µM (inactive)
[25]
  GI50: > 10 µM (inactive)
[26]
  GI50: 21.9 µM (inactive)
[27]
  GI50: 14.8 µM (inactive)
[28]
  GI50: 25.6 µM (inactive)
[29]
  GI50: > 100 µM (inactive)
[30]
  GI50: 18.3 µM (inactive)
[31]
  GI50: 20.6 µM (inactive)
[32]
  GI50: 20.7 µM (inactive)
[33]
  GI50: 26.5 µM (inactive)
[34]
  GI50: 25.2 µM (inactive)
[35]
  GI50: 20.1 µM (inactive)
[36]
  GI50: > 100 µM (inactive)
[37]
  GI50: 26.7 µM (inactive)
[38]
  GI50: 49.7 µM (inactive)
[57]
  GI50: 28 µM (inactive)
[39]
  GI50: 19.4 µM (inactive)
[40]
  GI50: 36.4 µM (inactive)
[41]
  GI50: 31.6 µM (inactive)
[58]
  GI50: 17.1 µM (inactive)
[42]
  GI50: 30.1 µM (inactive)
[44]
  GI50: 17.1 µM (inactive)
[59]
  GI50: 26.5 µM (inactive)
[45]
  GI50: 19.6 µM (inactive)
[46]
  GI50: 57.1 µM (inactive)
[47]
  GI50: 39.3 µM (inactive)
[48]
  GI50: 24.2 µM (inactive)
[49]
  GI50: 17.3 µM (inactive)
[50]
  GI50: 91 µM (inactive)
[51]
  GI50: 31 µM (inactive)
[52]
  GI50: 20.9 µM (inactive)
[53]
  GI50: 94.2 µM (inactive)
[54]
  GI50: 24.8 µM (inactive)
[55]
  GI50: 33 µM (inactive)

## CCOC(=O)Nc1cc2ccccc2c(/N=N/c2ccccc2)c1O
[1]
  GI50: 34.8 µM (inactive)
[2]
  GI50: > 100 µM (inactive)
[3]
  GI50: > 100 µM (inactive)
[4]
  GI50: > 100 µM (inactive)
[5]
  GI50: > 100 µM (inactive)
[6]
  GI50: 75.3 µM (inactive)
[7]
  GI50: > 100 µM (inactive)
[8]
  GI50: > 100 µM (inactive)
[9]
  GI50: > 100 µM (inactive)
[10]
  GI50: > 100 µM (inactive)
[11]
  GI50: > 100 µM (inactive)
[12]
  GI50: > 100 µM (inactive)
[13]
  GI50: > 100 µM
[14]
  GI50: > 100 µM (inactive)
[15]
  GI50: 27.9 µM (inactive)
[16]
  GI50: 88.7 µM (inactive)
[17]
  GI50: > 100 µM (inactive)
[18]
  GI50: 25.2 µM (inactive)
[19]
  GI50: 59.7 µM (inactive)
[20]
  GI50: > 100 µM (inactive)
[21]
  GI50: > 100 µM (inactive)
[56]
  GI50: > 100 µM (inactive)
[23]
  GI50: 56.4 µM (inactive)
[24]
  GI50: > 100 µM (inactive)
[25]
  GI50: > 100 µM (inactive)
[26]
  GI50: > 100 µM (inactive)
[27]
  GI50: > 100 µM (inactive)
[28]
  GI50: 55.6 µM (inactive)
[29]
  GI50: > 100 µM (inactive)
[30]
  GI50: > 100 µM (inactive)
[31]
  GI50: > 100 µM (inactive)
[32]
  GI50: 29.6 µM (inactive)
[33]
  GI50: > 100 µM (inactive)
[34]
  GI50: > 100 µM (inactive)
[35]
  GI50: 20.2 µM (inactive)
[36]
  GI50: > 100 µM (inactive)
[37]
  GI50: 37.2 µM (inactive)
[38]
  GI50: > 100 µM (inactive)
[57]
  GI50: > 100 µM (inactive)
[39]
  GI50: 20.7 µM (inactive)
[40]
  GI50: 58.2 µM (inactive)
[41]
  GI50: 31.7 µM (inactive)
[58]
  GI50: 13 µM (inactive)
[42]
  GI50: > 100 µM (inactive)
[43]
  GI50: > 100 µM (inactive)
[44]
  GI50: > 100 µM (inactive)
[59]
  GI50: 17.2 µM (inactive)
[45]
  GI50: > 100 µM (inactive)
[46]
  GI50: 84.1 µM (inactive)
[47]
  GI50: 31 µM (inactive)
[48]
  GI50: > 100 µM (inactive)
[49]
  GI50: > 100 µM (inactive)
[50]
  GI50: 91.4 µM (inactive)
[51]
  GI50: > 100 µM (inactive)
[52]
  GI50: 26.5 µM (inactive)
[53]
  GI50: > 100 µM (inactive)
[54]
  GI50: > 100 µM (inactive)
[55]
  GI50: > 100 µM (inactive)
